Results as given in the supplement of paper PMC11208160.

Test: recombinant barcode read abundance after kanamycin selection (control-corrected) (log10(CPM+1)); higher = more efficient recombination; sequences stand for … in AGTGCAGAGAAAATCGGCCAGTTTTCTCTGCCTGCAGTCCGCATGCCGT…AGATTTATGCAGCGGACTGCCTTTCTCCCAAAGTGATAAACCGGACAGTATCATGGACCGGTTTTCCCGGTAATCCGTATTTGCAAGGTTGGTTTCACT; site = the 11-nt target
Method in brief: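 Each value is log10(CPM+1). It describes recombination efficiency, taken as averaged, control-corrected counts per million of barcodes at recombinant junctions. The pooled E. coli library paired targets with IS621 bridge RNA target-binding loops, was co-electroporated with a donor plasmid, and was plated twice on chloramphenicol/ampicillin LB agar (control) and twice on chloramphenicol/ampicillin/kanamycin containing 0.1 mM IPTG.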
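Also: IS621 recombinase and bridge RNA in Escherichia coli cells.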

Sequence	recombinant barcode read abundance (log10)
GATCGATCTTGGGTTCTAACCTGTTGCGT (site GATCGATCTAC)	1.46
GATCGATCTTGGGTTCTAACCTGTTGCGT (site GATCGATCTAG)	0.284
GATCGATCTTGGGTTCTAACCTGTTGCGT (site GATCGATCTAT)	0.265
GATCTGCCTTGGGTTCTAACCTGTTGCCT (site GATCAGCCTAG)	0.246
GATCTGCCTTGGGTTCTAACCTGTTGCCT (site GATCTGCCTAG)	0.984
GATGGGACTTGGGTTCTAACCTGTTGCCG (site GATAGGACTAG)	0.0533
GATGGGACTTGGGTTCTAACCTGTTGCCG (site GATGGGACTCG)	2.19
GATGTGCCTTGGGTTCTAACCTGTTGCGT (site CCGCGAGCTCG)	0.0696
GATGTGCCTTGGGTTCTAACCTGTTGCGT (site GATGTGCCTAC)	2.57
GATTATGCTTGGGTTCTAACCTGTTGCCT (site GAGTATGCTAG)	0.259
GATTATGCTTGGGTTCTAACCTGTTGCCT (site GATTATGCTAG)	0.615
GATTCTACTTGGGTTCTAACCTGTTGCTT (site GAATCTACTAA)	0.155
GATTCTACTTGGGTTCTAACCTGTTGCTT (site GACTCTACTAA)	0.22
GATTCTACTTGGGTTCTAACCTGTTGCTT (site GAGTCTACTAA)	0.813
GATTCTACTTGGGTTCTAACCTGTTGCTT (site GATTCTACTAA)	0.0583
GATTTCGCTTGGGTTCTAACCTGTTGCCT (site ATCAGTTCTCA)	0.0643
GATTTCGCTTGGGTTCTAACCTGTTGCCT (site GATTTCGCTAG)	0.42
GCAAGCTCTTGGGTTCTAACCTGTTGCTA (site GCAAGCTCTTA)	1.3
GCAAGCTCTTGGGTTCTAACCTGTTGCTA (site GCAAGGTCTTA)	0.36
GCAAGGGCTTGGGTTCTAACCTGTTGCCG (site GCAAGGGCTCG)	1.24
GCAAGGGCTTGGGTTCTAACCTGTTGCCG (site GCTAGGGCTCT)	0.303
GCAAGGTCTTGGGTTCTAACCTGTTGCAT (site CGTTCTCCTTA)	0.18

Sequence	recombinant barcode read abundance (log10)
GCAAGGTCTTGGGTTCTAACCTGTTGCAT (site GCAAGGTCTAT)	2.5
GCAAGGTCTTGGGTTCTAACCTGTTGCTA (site GCAAGCTCTTA)	0.133
GCAAGGTCTTGGGTTCTAACCTGTTGCTA (site GCAAGGTCTTA)	1.98
GCAAGTCCTTGGGTTCTAACCTGTTGCGT (site CATGCCTCTCG)	0.0651
GCAAGTCCTTGGGTTCTAACCTGTTGCGT (site GCAAGTCCTAC)	2.47
GCAAGTTCTTGGGTTCTAACCTGTTGCCT (site GAAAGTTCTAG)	0.113
GCAAGTTCTTGGGTTCTAACCTGTTGCCT (site GCAAGTTCTAG)	1.33
GCAAGTTCTTGGGTTCTAACCTGTTGCCT (site GGAAGTTCTAG)	0.172
GCAAGTTCTTGGGTTCTAACCTGTTGCCT (site GTAAGTTCTAG)	0.229
GCAATATCTTGGGTTCTAACCTGTTGCCT (site AAGTCTCCTCT)	0.0108
GCAATATCTTGGGTTCTAACCTGTTGCCT (site GCAATATCTAG)	1.26
GCACAACCTTGGGTTCTAACCTGTTGCCT (site GCACAACCTAG)	1.89
GCACAACCTTGGGTTCTAACCTGTTGCCT (site GCACCACCTAG)	0.0258
GCACAACCTTGGGTTCTAACCTGTTGCCT (site GCACGACCTAG)	0.214
GCACAACCTTGGGTTCTAACCTGTTGCCT (site GCACTACCTAG)	0.0085
GCACACACTTGGGTTCTAACCTGTTGCTG (site GAACACACTCG)	0
GCACACACTTGGGTTCTAACCTGTTGCTG (site GCACACACTCA)	2.5
GCACACTCTTGGGTTCTAACCTGTTGCCT (site GCACACTCTAG)	2.43
GCACACTCTTGGGTTCTAACCTGTTGCCT (site GCACCCTCTAG)	0.128
GCACACTCTTGGGTTCTAACCTGTTGCCT (site GCACGCTCTAG)	0
GCACACTCTTGGGTTCTAACCTGTTGCCT (site GCACTCTCTAG)	0.261
GCACATTCTTGGGTTCTAACCTGTTGCCT (site GCACATACTAG)	0.0258

Sequence	recombinant barcode read abundance (log10)
GCACATTCTTGGGTTCTAACCTGTTGCCT (site GCACATTCTAG)	1.17
GCACCCTCTTGGGTTCTAACCTGTTGCCT (site GCACACTCTAG)	0.0655
GCACCCTCTTGGGTTCTAACCTGTTGCCT (site GCACCCTCTAG)	2.67
GCACCCTCTTGGGTTCTAACCTGTTGCCT (site GCACGCTCTAG)	0.0715
GCACCCTCTTGGGTTCTAACCTGTTGCCT (site GCACTCTCTAG)	0.0191
GCACGTGCTTGGGTTCTAACCTGTTGCCT (site GCACGTGCTAG)	0.624
GCACGTGCTTGGGTTCTAACCTGTTGCCT (site GCCCGTGCTAG)	0.141
GCACGTGCTTGGGTTCTAACCTGTTGCCT (site GCGCGTGCTAG)	0.0268
GCACGTGCTTGGGTTCTAACCTGTTGCCT (site GCTCGTGCTAG)	0.0446
GCACTAGCTTGGGTTCTAACCTGTTGCGT (site GCACTAACTAG)	0.17
GCACTAGCTTGGGTTCTAACCTGTTGCGT (site GCACTAGCTAC)	2.54
GCAGCCTCTTGGGTTCTAACCTGTTGCGT (site ATGTGAACTCA)	0.00651
GCAGCCTCTTGGGTTCTAACCTGTTGCGT (site GCAGCCTCTAC)	2.08
GCAGCTACTTGGGTTCTAACCTGTTGCTG (site ACAGCTACTAA)	0.0295
GCAGCTACTTGGGTTCTAACCTGTTGCTG (site GCAGCTACTCA)	0.694
GCATCCTCTTGGGTTCTAACCTGTTGCCA (site AGGAGTACTAA)	0.146
GCATCCTCTTGGGTTCTAACCTGTTGCCA (site GCATCCTCTTG)	0.584
GCATGTCCTTGGGTTCTAACCTGTTGCAT (site GAATGTCCTAT)	0.128
GCATGTCCTTGGGTTCTAACCTGTTGCAT (site GCATGTCCTAT)	1.37
GCCAAACCTTGGGTTCTAACCTGTTGCCT (site GCCAAACCTAG)	0.0479
GCCAAACCTTGGGTTCTAACCTGTTGCCT (site GCCACACCTAG)	0.0741
GCCAAACCTTGGGTTCTAACCTGTTGCCT (site GCCAGACCTAG)	0.458

Sequence	recombinant barcode read abundance (log10)
GCCAAACCTTGGGTTCTAACCTGTTGCCT (site GCCATACCTAG)	0.184
GCCAACCCTTGGGTTCTAACCTGTTGCGT (site GCCAACCCTAA)	0.212
GCCAACCCTTGGGTTCTAACCTGTTGCGT (site GCCAACCCTAC)	0.276
GCCAACCCTTGGGTTCTAACCTGTTGCGT (site GCCAACCCTAG)	0.149
GCCAACCCTTGGGTTCTAACCTGTTGCGT (site GCCAACCCTAT)	0.162
GCCACTCCTTGGGTTCTAACCTGTTGCGT (site GCCACTCCTAC)	0.297
GCCACTCCTTGGGTTCTAACCTGTTGCGT (site GTCAATCCTAC)	0.185
GCCATTACTTGGGTTCTAACCTGTTGCCT (site GCCATAACTAG)	0.0468
GCCATTACTTGGGTTCTAACCTGTTGCCT (site GCCATCACTAG)	0.0409
GCCATTACTTGGGTTCTAACCTGTTGCCT (site GCCATGACTAG)	0.297
GCCATTACTTGGGTTCTAACCTGTTGCCT (site GCCATTACTAG)	0.0923
GCCATTCCTTGGGTTCTAACCTGTTGCAT (site AGAGCCACTTA)	0.0467
GCCATTCCTTGGGTTCTAACCTGTTGCAT (site GCCATTCCTAT)	0.347
GCCCATGCTTGGGTTCTAACCTGTTGCGG (site CATTTCACTAG)	0.144
GCCCATGCTTGGGTTCTAACCTGTTGCGG (site GCCCATGCTCC)	2.05
GCCGACCCTTGGGTTCTAACCTGTTGCCG (site GCCGACCCTCG)	0.492
GCCGACCCTTGGGTTCTAACCTGTTGCCG (site GCCTACCCTCC)	0.0507
GCCGAGACTTGGGTTCTAACCTGTTGCCT (site GCCGAAACTAG)	0.48
GCCGAGACTTGGGTTCTAACCTGTTGCCT (site GCCGACACTAG)	0.0133
GCCGAGACTTGGGTTCTAACCTGTTGCCT (site GCCGAGACTAG)	0.34
